Residues, ends and D or L forms follow the SMILES beside them.
Experiments:
[1] = In vitro stability in 50% brain homogenate; format: in vitro ADME, mouse; settings: 37°C, HPLC-UV 220 nm, one phase decay, least square fit, n = 3
Experimental: (§1) The samples were analyzed at 40°C on a Phenomenex Lichrosorb RP8 C8 column (4.0 mm × 250 mm, 5 μm), using the gradient elution method on an Agilent HPLC system (Agilent Technologies, Cheadle, UK) equipped with an 1100 series degasser, quaternary pump, autosampler, and column heater, and attached to an Agilent 1200 series PDA detector and a 1250 series fluorescent detector. The flow rate was set at 1.2 mL min^-1, and the injection volume was set at 40 μL, while detection was performed at 220 nm. The mobile phase was a mixture of mobile phase A (0.1% TFA in water) and phase B (0.08% TFA in acetonitrile), and in the first 5 min, the mobile phase was an 8:2 ratio of A:B (v/v) and from 5 to 15 min the percentage of B was raised from 8:2 to 1:9 (v/v). Linear calibration curves were constructed for both peptides between 0.1–100 μg.mL^−1. The retention time for the human Lau–PTEN-PDZ, mouse Lau–PTEN-PDZ, human Myr–PTEN-PDZ, and mouse Myr–PTEN-PDZ was 12.03, 11.60, 13.68, and 13.91, respectively.
The liver and brain of the mice were excised from […] CD-1 male mice (7 weeks-old: Charles River Laboratories) sacrificed with CO2, and the tissue was frozen immediately with liquid nitrogen prior to storage at −80°C. The liver and brain tissue were thawed and homogenized on ice in PBS (2 mL/g of tissue) using a glass 3 mL tissue homogenizer (20 strokes per sample), and the liver and brain homogenates were centrifuged (Heraeus Multifuge 3sf, Fisher Scientific, Basingstoke, UK) at 4300 g for 60 min at 4°C and at 3000 g for 20 min at 4°C, respectively. The supernatant was stored at −80°C, diluted 1:1 (v/v) with PBS (1x, pH 7.4), and used in stability studies. Peptides stocks (5 mM in DMSO) were prepared and maintained at −20°C prior to performing stability studies. These stock solutions (120 μL) were added to the diluted pre-warmed (37°C) liver or brain homogenate (50% v/v, 1080 μL) with agitation (100 rpm: Grant Aqua Waterbath), and samples (80 μL) were taken at 0, 5, 10, 15, 30, 45, 60, 90, 120, 180, 240, 360 and 1440 min, and diluted with ice-cold acetonitrile (80 μL). Samples were vortexed and left at −80°C at least overnight to allow for maximum protein precipitation, the samples were vortexed again for 15 min, centrifuged and the supernatant was analyzed by HPLC as described above.
The total protein concentration in the homogenates was determined using the Bradford protein assay ([7],[15]) and BSA as a standard. Ten stock solutions of BSA were prepared in PBS between 0.1–1 mg mL^−1, and 40 μL of each of the diluted stocks were added to 1.2 mL of Bradford reagent and incubated at room temperature for 5 min. The absorbance was recorded at 595 nm using a Multiskan GO spectrophotometer and the SkanIt software (Thermo Scientific, Paisley, UK). A linear calibration curve was obtained in this range that was used to extrapolate the protein content of 1:100 v/v stock solutions of 50% mouse plasma, liver, and brain homogenates diluted in PBS.

hCMEC/D3 cells = experiment: MTT metabolic activity assay in hCMEC/D3 cells; format: cell-based, human; settings: 24 h versus 4 h exposure
Experimental: HCMEC/D3 (passage number 32–40) cultured in EBM-2 (Lonza) supplemented with the EGM-2 Bullet Kit™ (Lonza), and 2% v/v human serum (Sigma H3667, Batch: SLBW2276) were used to assess the cytotoxicity of lipidized peptides. The cells were subjected to routine mycoplasma testing and authenticated in house. The cells were seeded at 46,875 cells/cm^2 in complete medium, and allowed to attach overnight, refreshing the medium to treat the cells with peptide solutions. The peptide solutions were prepared from […] DMSO stocks at a final concentration between 1 and 400 μM in complete medium to ensure a final DMSO concentration of 0.5%, and 200 μL of the diluted stock was added to each well. The metabolic activity of the cells was measured after 4 and 24 h using the MTT (3-(4,5)-dimethylthiazol-2-yl)-2,5-diphenyltetrazolium bromide) assay. At the time points specified, the MTT solution was added to each well (20 μL at 5 mg.mL^−1 in PBS), and the cells were incubated for 4 h at 37°C. Subsequently, DMSO (100 μL) was added to dissolve the formazan crystals, and the absorbance was measured at 570 and 690 nm on a Multiskan Go microplate spectrophotometer, analyzing the data using the SkanIt software (Thermo Scientific, Paisley, UK). […]
IC50 values were calculated using Graphpad Prism 8.0 (San Diego, USA) and fitted using a non-linear regression model ([Inhibitor] vs. response (three parameters)).

[2] = Permeability across in vitro 2D human blood-brain barrier model; format: in vitro ADME; settings: read-out: Papp0-4h, Experiment 2
[3] = In vitro stability in 50% v/v mouse plasma; format: in vitro ADME; settings: 37°C, HPLC-UV 220 nm, one phase decay, least square fit, n = 3
Experimental: CD-1 male mice (7 weeks old: Charles River Laboratories) were sacrificed with CO2, and blood was collected in K3E EDTA spray-coated vacutainers and kept on ice prior to centrifugation at 3000 rpm for 15 min at 4°C (Heraeus Multifuge 3sf). Mouse plasma samples were stored at −80°C before use in stability studies. Study was approved by the University of Portsmouth Animal Welfare and Ethical Review Body (UoP AWERB body, 817).
For testing, the plasma was diluted (1:1) in PBS without phenol and pre-warmed to 37°C. Peptides stocks (5 mM in DMSO) were prepared and maintained at −20°C before performing the stability studies. Peptide stock solutions (120 μL) were added to pre-warmed diluted plasma (50% v/v, 1080 μL) and maintained at 37°C with agitation (100 rpm: Grant Aqua Waterbath, Royston, UK). Samples (80 μL) were taken at 0, 3, 6,9, 15, 30, 45, 60, 90, 120, 180, 240, 360 and 1440 min, diluted with ice-cold acetonitrile (80 μL), vortexed and left in −80°C at least overnight to favor maximal protein precipitation. The samples were then vortexed again for 15 min (SciQuip microplate shaker, Shropshire, UK), centrifuged in a Thermo Sci Jouan B4i Centrifuge (Hemel Hampstead, UK) and the supernatant was transferred to an HPLC vial (200 μL).
as §1

[4] = 50% w/v mouse brain homogenate in PBS pH 7.4

CCCCCCCCCCCCCC(=O)N[C@@H](CCC(N)=O)C(=O)N[C@@H](Cc1c[nH]cn1)C(=O)N[C@@H](CO)C(=O)N[C@@H](CCC(N)=O)C(=O)N[C@H](C(=O)N[C@H](C(=O)N[C@@H](CCCCN)C(=O)N[C@H](C(=O)O)C(C)C)[C@@H](C)O)[C@@H](C)CC [Mouse Myr-PTEN-PDZ] (HELM PEPTIDE1{[CCCCCCCCCCCCCC(=O)[*:2]].Q.H.S.Q.I.T.K.V}$$$$V2.0)
k ([1]; 50% w/v CD-1 mouse brain homogenate in PBS pH 7.4, 120 μL of 5 mM DMSO stock in 1080 μL, 100 rpm, 0-1440 min): 2.71 h⁻¹ | t1/2 (h) [1, 4]: 0.25 h | t1/2 (min) [1, 4]: 15.32 min | Recovery of cell metabolic activity after 24 h (hCMEC/D3 cells): did not allow the cells to recover after 24 h | Papp A→B at 100 μM [2]: 2.63 ± 0.08 ×10⁻⁶ cm/s | k ([3]; 50% v/v CD-1 mouse plasma (K3 EDTA) in PBS, 120 μL of 5 mM DMSO stock in 1080 μL, 100 rpm, 0-1440 min): 0.80 h⁻¹ | t1/2 (h) ([3]; 50% v/v mouse plasma in PBS): 0.87 h | t1/2 (min) ([3]; 50% v/v mouse plasma in PBS): 52.16 min

Source: article PMC7473970, “Preformulation Studies of a Stable PTEN-PDZ Lipopeptide Able to Cross an In Vitro Blood-Brain-Barrier Model as a Potential Therapy for Alzheimer’s Disease” (Pharmaceutical Research, 2020)
